Key:
HuH-7 cells [1] = assay: Morphodynamics analysis (edge velocity); assay type: cell-based, human; settings: for Retraction velocity / Protrusion velocity: median
Protocol: The whole-cell morphodynamics maps were generated using the open-source ImageJ plugin “ADAPT”[46]. The analyses were done on the maximum intensity projection of 5.5-µm stack images of mRuby-Lifeact-7 transfected HuH-7 cells pretreated with peptides for 12 hr. A spinning-disk confocal (Olympus SD-OSR) equipped with the camera Prime BSI sCMOS camera and a 100×/1.35 Silicon UPlanSApo objective was used to obtain the images every 2 min. All velocity values are directly measured using the plugin and plotted using GraphPad Prism. Briefly, the fluorescent images were Gaussian filtered to suppress noise and then a gray-level threshold was applied to create a binary image. The cell boundary was taken as pixels bordering segmented regions and the resulting segmentation is used as the seed for the region-growing algorithm in the next frame. […] The change in gray level was used to calculate the membrane velocity at each point and for a better visual representation, the resulting velocity map images (around 10000 × 100 pixels) were stretched to optimize visualization. […]

[2] = test system: Phospho-Myosin Light Chain 2 (Thr18/Ser19) (pMLC) in HuH-7 cells; assay: Western blotting pMLC; assay type: cell-based, human; settings: relative to Ctrl = 1, 12 hr, representative blot
Protocol: Protein lysates were prepared in ice-cold RIPA lysis, and extraction buffer (Thermo Scientific) supplemented with 1% Halt Protease Inhibitor (Thermo Scientific) and 1% Halt Phosphatase inhibitor (Thermo Scientific). Cells were scraped off from the culture surface using a cold plastic cell scraper, and the cell suspension was then gently transferred into a pre-cooled microcentrifuge tube and maintained on ice for 30 min with constant agitation before centrifuged at 21000 × g for 20 min. The supernatant was then transferred to a new tube, and the protein concentration of the supernatant was quantified according to the Pierce™ BCA Protein Assay Kit (Thermo Scientific). The rest of the supernatant was mixed with 4x laemmli sample buffer (Bio-Rad) in a 1:3 ratio and boiled at 100 °C for 10 min. Lysates can be aliquoted and stored at −80 °C freezer. When running the gel, 30 μg of protein was loaded into each well of the SDS-PAGE gels, along with a molecular weight marker (Bio-Rad). The gel was run for 2 hr at constantly 100 V to separate the proteins based on the molecular weight. The proteins were then transferred from the SDS-gel to a PVDF membrane (Bio-Rad) using a Transfer-blot turbo system (Bio-Rad). […] Protein bands were quantified by measuring peak areas using ImageJ. […]

[3] = FTIR microscopy of peptide assemblies; assay type: physicochemical; settings: freeze-dried on CaF2, aqueous assembly
Source text: To prepare FTIR samples, an aliquot of the peptide solution was dropped on a TS CaF2 window (5 mm diameter) (Edmund Optics, Japan) and freeze-dried using a lyophilizer (Freeze Dryer, Labconco). The CaF2 Window with assembled nanofilaments was mounted for FTIR microscopic analysis. FTIR microscopic analysis of a plain CaF2 Window served as the reference. An FTIR microscope (Nicolet iN10, Thermo Fisher Scientific) equipped with an MCT detector was used for collecting IR spectra. Spectra ranging from 4000 to 650 cm^−1 were obtained in transmission mode, aperture of 50 μm, with the resolution of 2 cm^−1. Each spectrum was derived from an average of 128 scans for each sample.

HuH-7 cells [4] = assay: Traction stress analysis; assay type: cell-based, human; settings: HuH-7 on PDMS, 12 hr, n = 18-21 cells
Protocol: mRuby-Lifeact-7 transfected HuH-7 cells were applied for the traction force microscopy experiments. The in situ fluorescent images of the cell was applied to define the area of measurement. The cells were seeded on a PDMS substrate functionalized with 0.2 µm FluoSpheres™ Carboxylate-Modified Microspheres (F8807, Invitrogen) at a density of approximately 6000 cells/cm^2. The substrate was fabricated by following the published protocol on (STAR) Protocol[45], except that there were no ECM proteins coated on the substrate here. […] After being pretreated with peptides for 12 hr, the samples were imaged by a 100×/1.35 Silicon UPlanSApo objective, and the bead displacement obtained from confocal imaging was converted into force-displacement fields following established protocol[47],[48]. Briefly, Images of beads with and without cell attachment were first aligned to correct experimental drift using ImageJ plugin “align slices in stack”. The displacement field was subsequently calculated by another ImageJ plugin “PIV (Particle Image Velocimetry)”. The cross-correlation PIV with a size of 64 × 32 pixels was used on all images for the PIV analysis to produce the position and vector field of the bead displacement. With the displacement field obtained from the PIV analysis, the traction force field was then reconstructed by the ImageJ plugin “FTTC”. […]

[5] = Circular dichroism (CD) spectroscopy of peptide assemblies; assay type: physicochemical; settings: 100 µM, aqueous, 0.5 mm path
Protocol: CD spectra of the peptide assemblies in aqueous solutions were recorded under the nitrogen atmosphere using a spectrophotometer JASCO J-820 (Jasco, Japan). A quartz cuvette with 0.5 mm path length was used as a sample container. Continuous scanning mode is applied. And each sample is scanned three times to obtain an averaged spectrum.

[6] = entire periphery, HuH-7, pretreated 12 hr, violin plot
[7] = vin258-transfected HuH-7, 12 hr, n = 10 cells

With “FFFIKLLI [assembling ligand: FFF coupled to the N-terminus of IKLLI; self-assembles into nanofilaments]” the “trailing edge retraction and leading-edge protrusion” value (HuH-7 cells [1]; HuH-7, FFFIKLLI 100 μM, 12 h) was “restricted both trailing edge retraction and leading-edge protrusion”, the Retraction velocity (HuH-7 cells [1]; Tiam1/Rac1-activated HuH-7, 12 hr, n = 7, 8 cells) was 0.035 µm/min and the Protrusion velocity (HuH-7 cells [1]; [6]) was 0.0072 µm/min. The Retraction velocity (HuH-7 cells [1]; [6]) was 0.0076 µm/min, the Protrusion velocity (HuH-7 cells [1]; [7]) was 0.0086 µm/min and the Retraction velocity (HuH-7 cells [1]; [7]) was 0.0080 µm/min. For the same sequence, the pMLC band [2] was 0.17, the “hydrogen bonding by FTIR” value [3] was “NH-N” and the “Average Traction Stress” value (HuH-7 cells [4]) was 0.101 kPa. The “Maximal Traction Stress” value (HuH-7 cells [4]) was 0.828 kPa and the “secondary structure of self-assembly” value [5] was “random coil structure”.
